In ChEMBL document CHEMBL2396549, “The discovery of BMS-457, a potent and selective CCR1 antagonist” (Bioorg Med Chem Lett, 2013):
pIC50: −log10 of the molar value.

Molecular target: T1, C-C chemokine receptor type 1 (Homo sapiens, UniProt P32246)
T1 sequence (P32246 whole entry): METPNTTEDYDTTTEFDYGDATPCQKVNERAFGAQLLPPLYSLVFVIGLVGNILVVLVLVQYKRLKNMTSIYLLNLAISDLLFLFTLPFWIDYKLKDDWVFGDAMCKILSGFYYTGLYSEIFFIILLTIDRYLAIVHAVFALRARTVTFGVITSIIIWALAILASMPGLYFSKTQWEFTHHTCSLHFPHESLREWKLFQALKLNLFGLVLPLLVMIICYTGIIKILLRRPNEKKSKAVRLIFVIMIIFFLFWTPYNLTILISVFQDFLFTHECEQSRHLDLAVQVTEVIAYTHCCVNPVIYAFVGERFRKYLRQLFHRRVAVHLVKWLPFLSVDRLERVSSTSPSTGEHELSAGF
Assay: Binding affinity to human CCR1

Compound	pIC50
CC(C)[C@@H](NC(=O)c1ccc(Cl)cc1)C(=O)N1CC[C@@](c2ccc(Cl)cc2)(N(C)C)C(C)(C)C1	< 5.08
CO[C@]1(c2ccc(Cl)cc2)CCN(C(=O)[C@H](NC(=O)c2ccc(Cl)cc2)C(C)C)CC1(C)C	4.60
CC(C)[C@@H](NC(=O)C1CCCC1)C(=O)N1CCN(c2ccc(Cl)cc2)C(C)(C)C1	8.39
CC(C)[C@@H](NC(=O)c1ccc(Cl)cc1)C(=O)N1CC[C@@](O)(c2ccc(Cl)cc2)C(C)(C)C1	5.74
CC(C)[C@@H](NC(=O)c1cccc(Cl)c1)C(=O)N1CC[C@](O)(c2ccc(Cl)cc2)C(C)(C)C1	8.00
CC(C)C(=O)N[C@@H](C(=O)N1CC[C@](O)(c2ccc(Cl)cc2)C(C)(C)C1)C(C)C	8.34
CC(C)[C@@H](NC(=O)c1ccccc1C(=O)O)C(=O)N1CC[C@](O)(c2ccc(Cl)cc2)C(C)(C)C1	5.53
CC(C)[C@@H](NC(=O)c1ccncc1)C(=O)N1CC[C@](O)(c2ccc(Cl)cc2)C(C)(C)C1	8.12
CC(C)[C@@H](NC(=O)c1cccc(-c2ccccc2NC(N)=O)c1)C(=O)N1CC[C@](O)(c2ccc(Cl)cc2)C(C)(C)C1	8.47
CC(C)[C@@H](NC(=O)CCCc1ccccc1)C(=O)N1CC[C@](O)(c2ccc(Cl)cc2)C(C)(C)C1	8.77
CC(C)[C@@H](NC(=O)c1ccccc1Cl)C(=O)N1CC[C@](O)(c2ccc(Cl)cc2)C(C)(C)C1	8.18
CC(C)[C@@H](NC(=O)c1ccccn1)C(=O)N1CC[C@](O)(c2ccc(Cl)cc2)C(C)(C)C1	7.82
CC(C)[C@@H](NC(=O)Cc1ccncc1)C(=O)N1CC[C@](O)(c2ccc(Cl)cc2)C(C)(C)C1	8.92
CC(C)[C@@H](NC(=O)[C@@H]1CC[C@H](N)C1)C(=O)N1CC[C@](O)(c2ccc(Cl)cc2)C(C)(C)C1 (mixture of isomers)	5.80
CC(C)[C@@H](NC(=O)c1cccnc1)C(=O)N1CC[C@H](c2ccc(Cl)cc2)C(C)(C)C1	8.43
CC(C)[C@@H](NC(=O)Cc1ccccc1)C(=O)N1CC[C@](O)(c2ccc(Cl)cc2)C(C)(C)C1	8.39

Compound	pIC50
CC(C)CC(=O)N[C@@H](C(=O)N1CC[C@](O)(c2ccc(Cl)cc2)C(C)(C)C1)C(C)C	8.54
CC(C)[C@@H](NC(=O)CC12CC3CC(CC(C3)C1)C2)C(=O)N1CC[C@](O)(c2ccc(Cl)cc2)C(C)(C)C1	8.59
CC(C)[C@@H](NC(=O)[C@H]1CC[C@@H](N)C1)C(=O)N1CC[C@](O)(c2ccc(Cl)cc2)C(C)(C)C1 (mixture of isomers)	6.71
CC(C)CCC(=O)N[C@@H](C(=O)N1CC[C@](O)(c2ccc(Cl)cc2)C(C)(C)C1)C(C)C	8.77
CCC(=O)N[C@@H](C(=O)N1CC[C@](O)(c2ccc(Cl)cc2)C(C)(C)C1)C(C)C	8.35
CC(=O)N[C@]1(c2ccc(Cl)cc2)CCN(C(=O)[C@H](NC(=O)c2ccc(Cl)cc2)C(C)C)CC1(C)C	< 5.08
CC(C)[C@@H](NC(=O)c1ccc(Cl)cc1)C(=O)N1CC[C@](O)(c2ccc(Cl)cc2)C(C)(C)C1	8.48
CC(C)[C@@H](NC(=O)c1ccc(F)c(O)c1)C(=O)N1CCC(c2ccc(Cl)cc2)CC1	8.00
CC(C)[C@@H](NC(=O)c1ccc(Cl)cc1)C(=O)N1CCC(O)(c2ccc(Cl)cc2)C2(CCCC2)C1 (mixture of isomers)	6.68
CC(=O)N[C@@H](C(=O)N1CC[C@](O)(c2ccc(Cl)cc2)C(C)(C)C1)C(C)C	7.89
CC(C)[C@@H](NC(=O)C1CC1)C(=O)N1CC[C@](O)(c2ccc(Cl)cc2)C(C)(C)C1	8.52
CC(C)[C@@H](NC(=O)c1cccc(S(N)(=O)=O)c1)C(=O)N1CCC(c2ccc(Cl)cc2)CC1	7.40
CC(C)[C@@H](NC(=O)c1cccc(-c2ccccc2NC(N)=O)c1)C(=O)N1CCC(c2ccc(Cl)cc2)CC1	8.17
CC(C)[C@@H](NC(=O)c1ccc(F)c(O)c1)C(=O)N1CC[C@](O)(c2ccc(Cl)cc2)C(C)(C)C1	8.54
CC(C)[C@@H](NC(=O)c1ccc(S(N)(=O)=O)cc1)C(=O)N1CC[C@](O)(c2ccc(Cl)cc2)C(C)(C)C1	6.63
